In patent publication US20100216724A1, “USE OF F[…] (196-203 ) AS A […] AGENT” (priority 2007, published 2010):
Where no end group is shown, it is not given here.

System: drug-resistant Mycobacterium tuberculosis
Details: drug-resistant Mycobacterium tuberculosis growth; peptide 10 micrograms per ml; seven days

SRNRCNDQ-NH2
% inhibition: 0.0%
